Data published in patent publication US11612587B2, “Composition for preventing or treating hair loss” (KYUNGPOOK NATIONAL UNIVERSITY INDUSTRY-ACADEMIC COOPERATION …, priority 2018, dated 2023).

What was measured:
[1] = tested on: human hair follicles; assay: toxicity / growth of cultured human hair follicle tissue treated with the compound alone; assay type: cell-based; conditions: 6 days culture
Description: (§1) Human hair tissue was provided from the hair transplant center of Kyungpook National University and used for the experiment by separating the hair follicles from the scalp tissue with the consent of the hair transplant patient (IRB project number: KNUH2014-02-023). After treatment of each compound, human hair tissue was prepared by incubating a 37° C. CO2 incubator for 6 days using Williams E media (Sigma, USA) containing 2 mM L-glutamine, 100 U/ml streptomycin, and 10 ng/ml hydrocortisone and the length of growth was measured using a microscope.
(§2) The data from the above experiments were expressed as mean±SEM. For statistical processing, the mean deviation of each group was measured using Student's t-test, and it was considered significant at p<0.005 and p<0.05.

[2] = tested on: human hair follicles; assay: recovery of human hair follicle growth inhibition by 15d-PGJ2 in human hair follicle tissue culture; assay type: cell-based; conditions: for hair follicle growth (hair follicle length when 15d-PGJ2 was treated alone as 100%): 6 days culture, FIG. 5
Description: as §1, §2

`O=C(O)CN1C(=O)C2(CC(=O)N(Cc3cc(Cl)ccc3F)C2=O)c2cc(Cl)ccc21` (stereo not shown) [Compound 1] was tested, and the “toxicity in human hair follicle tissue (hair follicle growth vs untreated group)” value ([1]; compound alone at 0.1-10 nM, FIG. 4) was “no significant difference”, the “hair follicle growth (hair follicle length when 15d-PGJ2 was treated alone as 100%)” value ([2]; 0.1 nM compound simultaneously with 15d-PGJ2 (10 μM)) was 108% and the “hair follicle growth (hair follicle length when 15d-PGJ2 was treated alone as 100%)” value ([2]; 1 nM compound simultaneously with 15d-PGJ2 (10 μM)) was 194%. For the same molecule, the “hair follicle growth (hair follicle length when 15d-PGJ2 was treated alone as 100%)” value ([2]; 10 nM compound simultaneously with 15d-PGJ2 (10 μM)) was 234%.
With `CC(C)(C)OC(=O)CN1C(=O)C2(CCNC2=O)c2cc(Cl)ccc21` (stereo not shown) [Compound 2] the “toxicity in human hair follicle tissue (hair follicle growth vs untreated group)” value ([1]; compound alone at 0.1 to 10 μM, FIG. 6) was “no significant difference” and the “hair follicle growth inhibited by 15d-PGJ2” value ([2]; Compound 2 0.5 μM, 1 μM simultaneously with 15d-PGJ2 (10 μM), vs 15d-PGJ2 only, FIG. 7) was “significantly increased”.
For `CCCCC/C=C/C=C1/C(=O)C=C[C@@H]1C/C=C\CCCC(=O)O` [Compound 15d-PGJ2, 15-deoxy-Δ^12,14-prostaglandin J2, reference compound], the “decrease of hair follicle growth” value ([1]; 15d-PGJ2 alone at 10 μM, FIG. 1) was “⅓”.
